{"source": "patent US20240294588A1", "about": "“C2 Domain Therapeutics and Uses Thereof” (University of Maryland, Baltimore, priority 2021, published 2024)", "key": {"dysferlin and PKCα": {"system": "dysferlin and PKCα", "experiment": "Colocalization and co-immunoprecipitation of dysferlin and PKCα", "assay_type": "cell-based"}, "[1]": {"system": "dysferlin-null A/J myofibers", "experiment": "Ca2+ signaling: voltage-induced Ca2+ transients (Rhod-2) and Ca2+ waves before and after osmotic shock injury (OSI) in electroporated FDB myofibers", "assay_type": "cell-based, mouse", "details": "for Effect on amplitude of Ca2+ transients: A/J fibers, FIG. 8; for Ca2+ signaling activity (restoring/protecting amplitude of the Ca2+ transient after OSI): construct electroporated into dysferlin-null A/J FDB fibers, Rhod-2, before and 5 min after OSI; for Ca2+ wave frequency / suppression of Ca2+ waves after OSI: construct expressed in A/J fibers; for y-intercept for Ca transient (normalized Ca release vs amount of Venus construct in each fiber) / y-intercept for wave frequency (Ca wave frequency vs amount of Venus construct in each fiber): intercept at low expression level, FIG. 2E / FIG. 4E", "from_the_text": "(§1) FIGS. 2A-2E show the DYSF-C2A distribution and partial protection against loss of Ca^2+ transient and development of Ca^2+ waves after OSI. The construct in FIG. 2A was electroporated into Flexor digitorum brevis (FDB) muscles of dysferlin-null A/J mice and imaged 10 d later. […] Distribution of the Venus construct is indicated to the right. Recovery is partial (in the upper region of fiber). FIG. 2D quantitates results from several dozen fibers of each type. […] Higher levels of expression show more consistent recoveries and suppression of waves than lower levels.\nTo assay Ca^2+ transients, Rhod-2 was added to myofibers as the Rhod2-AM derivative at a concentration of 4.4 μM, or almost 500× higher than the concentration of BAPTA-AM that effectively restores the WT phenotype. Rhod-2 is essentially rhodamine on a BAPTA backbone, so its mode of binding Ca^2+ is identical to that of BAPTA. Rhod-2 has a (calculated) Stokes' radius ˜20% larger than BAPTA; it has a lower affinity for Ca^2+ and its solubility in DMSO is ˜20× lower than BAPTA's. Rhod-2 appears to distribute uniformly in the myoplasm under these conditions of loading."}, "FDB muscles of A/J mice [2]": {"system": "FDB muscles of A/J mice", "experiment": "Membrane repair after infrared laser injury in the presence of FM4-64 dye", "assay_type": "cell-based, mouse", "details": "A/J FDB muscle, FM4-64 fluorescence, area under curve", "from_the_text": "FIGS. 3A-3B show the membrane repair by the DYSF-C2A domain. FDB muscles of A/J mice were electroporated with expression plasmids for WT DYSF or DYSF-C2A. 7d later muscles were removed and injured by infrared laser illumination in the presence of FM4-64 lipophilic dye. […] Means±SEM, n=7, *p<0.01 by ANOVA followed with Tukey's post-hoc test."}, "cultured myofibers": {"system": "cultured myofibers", "experiment": "Accumulation of chelator in treated myofibers, estimated with fluorescent variant Fluo4-AM", "assay_type": "cell-based", "details": "10 nM extracellular concentration", "method": "This concentration of BAPTA in myofibers is sufficient to restore elevated myoplasmic [Ca^2+ ] of 150-200 nM to levels close to WT levels of ˜100 nM. This can explain why as little as 10 nM BAPTA-AM can restore the WT phenotype."}, "FDB muscles of A/J mice [3]": {"system": "FDB muscles of A/J mice", "details": "dysferlin-null fibers, background / known results; cited from earlier work"}, "[4]": {"system": "dysferlin-null A/J myofibers", "details": "dysferlin-null fibers, background / known results, cited from earlier work"}, "Solubility in DMSO": {"experiment": "Solubility in DMSO", "assay_type": "physicochemical"}, "[5]": {"system": "dysferlin-null A/J myofibers", "experiment": "Distribution of Venus-tagged constructs (triad junctions vs Z-disks) in transfected myofibers", "assay_type": "cell-based, mouse", "details": "FIG. 6", "from_the_text": "as §1\nThe constructs in FIG. 4A were electroporated and visualized as in FIG. 2. […] Recovery is complete. FIG. 4D quantitates results from several dozen fibers transfected with each construct. […] Note the high level of Ca release and low frequency of waves indicated by the y-intercepts at low transfection levels.\nA Venus-tagged version of the C2 domain of PKCα was expressed in both control (C57Bl/6) (FIG. 12A) and dysferlin-null (A/J) myofibers (FIG. 12B) and the transfected fibers were imaged. […] They help to explain the ability of the chimeric constructs containing Ven-C2-PKCα to potentiate the beneficial effects of the DYSF-C2A domain."}}, "note": "“Also recorded” adds a separate entry of the source. Like-named read-outs stand apart in the source and are kept apart here."}
{"compound": "CCCCCCCCCCCCCC(=O)O[C@@H]1[C@@H](C)[C@@]2(O)[C@@H](C=C(CO)C[C@]3(O)C(=O)C(C)=C[C@@H]23)[C@@H]2C(C)(C)[C@]12OC(C)=O", "note": "[PMA, phorbol 12-myristate 13-acetate, reference compound]", "values": [{"measurement": "Effect on colocalization of dysferlin and PKCα in myofibers and on co-IP from HEK cells", "setting": "dysferlin and PKCα", "value": "neither phorbol 12-myristate 13-acetate (PMA) nor staurosporine, drugs that activate and inhibit PKCα, respectively, have any effect"}, {"measurement": "Effect on amplitude of Ca2+ transients", "setting": "[1]", "value": "significantly alter the amplitude of the Ca^2+ transients"}]}
{"compound": "CC(=O)OCOC(=O)CN(CC(=O)OCOC(C)=O)c1ccccc1OCCOc1ccccc1N(CC(=O)OCOC(C)=O)CC(=O)OCOC(C)=O", "note": "[BAPTA-AM, reference compound]", "values": [{"measurement": "Restoration of WT phenotype (Ca2+ transient before and after OSI, Ca2+ waves)", "setting": "[1]; 10 nM added to cultured A/J myofibers", "value": "effectively restores A/J myofibers to the WT phenotype"}]}
{"compound": "A84V: full length dysferlin with polymorphism A84V in C2A [reference compound]", "values": [{"measurement": "Ca2+ signaling activity (restoring/protecting amplitude of the Ca2+ transient after OSI)", "setting": "[1]", "value": "left dysferlin's Ca^2+ signaling activity intact"}]}
{"compound": "C2 domain of PKCα: isolated C2 domain of PKCα (XP_024306597.1, residues 71-229), tagged with a Venus moiety", "values": [{"measurement": "Membrane repair activity", "setting": "FDB muscles of A/J mice [2]", "value": "inactive"}, {"measurement": "Ca2+ signaling activity (restoring/protecting amplitude of the Ca2+ transient after OSI)", "setting": "[1]", "value": "completely without activity"}, {"measurement": "Ca2+ signaling activity (restoring/protecting amplitude of the Ca2+ transient after OSI)", "setting": "[1]; listed as PKCα-C2", "value": "failed to replicate the effects of DYSF-C2A"}, {"measurement": "Ca2+ signaling activity (restoring/protecting amplitude of the Ca2+ transient after OSI)", "setting": "[1]; listed as PKCα-C2 domain", "value": "inactive"}]}
{"compound": "CC(=O)OCOC(=O)CN(CC(=O)OCOC(C)=O)c1ccc(C)cc1OCCOc1cc(-c2c3cc(F)c(=O)cc-3oc3cc(OCOC(C)=O)c(F)cc23)ccc1N(CC(=O)OCOC(C)=O)CC(=O)OCOC(C)=O", "note": "[Fluo4-AM]", "values": [{"measurement": "Intracellular vs extracellular concentration", "setting": "cultured myofibers", "value": "7-10 fold"}]}
{"compound": "WT dysferlin: wild type full length dysferlin introduced by electroporation, positive control", "values": [{"measurement": "Membrane repair, earlier studies", "setting": "FDB muscles of A/J mice [3]", "value": "restores full activity"}, {"measurement": "Ca2+ signaling (Ca2+ transient amplitude, loss after OSI, waves), earlier studies", "setting": "[4]", "value": "restores full activity"}, {"measurement": "Ca2+ signaling (Ca2+ transient amplitude, loss after OSI, waves), earlier studies", "setting": "[4]; listed as wild type dysferlin", "value": "restores the amplitude of Ca^2+ transients to WT levels"}]}
{"compound": "DYSF-C2A: C2A domain of dysferlin (AF075575.1, amino acids 1-100) expressed on its own as a Venus fusion protein; SEQ ID NO: 4", "values": [{"measurement": "Membrane repair activity", "setting": "FDB muscles of A/J mice [2]", "value": "improved repair as well as WT DYSF; also recorded: fully stabilized membrane repair activity"}, {"measurement": "Ca2+ signaling activity (restoring/protecting amplitude of the Ca2+ transient after OSI)", "setting": "[1]", "value": "intermediate between Venus (negative control) and WT DYSF (positive control) controls; also recorded: partially restored some Ca^2+ signaling activity"}, {"measurement": "Ca2+ wave frequency / suppression of Ca2+ waves after OSI", "setting": "[1]", "value": "low frequency of Ca^2+ waves, only slightly more than with WT DYSF"}, {"measurement": "y-intercept for Ca transient (normalized Ca release vs amount of Venus construct in each fiber)", "setting": "[1]", "value": 0.47}, {"measurement": "y-intercept for wave frequency (Ca wave frequency vs amount of Venus construct in each fiber)", "setting": "[1]", "value": 0.37}]}
{"compound": "COc1ccc([C@@H]2Sc3ccccc3N(CCN(C)C)C(=O)[C@@H]2OC(C)=O)cc1", "note": "[diltiazem]", "values": [{"measurement": "Ca2+ signaling (Ca2+ transient amplitude, loss after OSI, waves), earlier studies", "setting": "[4]", "value": "prevented these changes"}]}
{"compound": "W52R: full length dysferlin with pathogenic mutation W52R in C2A [reference compound]", "values": [{"measurement": "Ca2+ signaling activity (restoring/protecting amplitude of the Ca2+ transient after OSI)", "setting": "[1]", "value": "inactivated full length dysferlin"}]}
{"compound": "V68L: full length dysferlin with polymorphism V68L in C2A [reference compound]", "values": [{"measurement": "Ca2+ signaling activity (restoring/protecting amplitude of the Ca2+ transient after OSI)", "setting": "[1]", "value": "left dysferlin's Ca^2+ signaling activity intact"}]}
{"compound": "O=C1CN(/N=C/c2ccc(-c3ccc([N+](=O)[O-])cc3)o2)C(O)=N1", "note": "[dantrolene]", "values": [{"measurement": "Ca2+ signaling (Ca2+ transient amplitude, loss after OSI, waves), earlier studies", "setting": "[4]", "value": "prevented these changes"}]}
{"compound": "CN[C@@H]1C[C@H]2O[C@@](C)([C@@H]1OC)n1c3ccccc3c3c4c(c5c6ccccc6n2c5c31)C(=O)NC4", "note": "[staurosporine, reference compound]", "values": [{"measurement": "Effect on amplitude of Ca2+ transients", "setting": "[1]", "value": "significantly alter the amplitude of the Ca^2+ transients"}]}
{"compound": "Rhod-2", "values": [{"measurement": "Solubility in DMSO relative to BAPTA", "setting": "Solubility in DMSO", "value": "~20", "unit": "× lower"}]}
{"compound": "C2-PKCα-DYSF-C2A: chimeric construct with C2-PKCα just N-terminal to DYSF-C2A, tagged with Venus; SEQ ID NO: 11", "values": [{"measurement": "Membrane repair activity", "setting": "FDB muscles of A/J mice [2]", "value": "improved repair as well as WT DYSF; also recorded: just as effective as WT DYSF in supporting membrane repair"}, {"measurement": "Ca2+ signaling activity (restoring/protecting amplitude of the Ca2+ transient after OSI)", "setting": "[1]", "value": "results identical to WT DYSF; also recorded: indistinguishable from WT DYSF in restoring the amplitude of the Ca^2+ transient"}, {"measurement": "Ca2+ wave frequency / suppression of Ca2+ waves after OSI", "setting": "[1]", "value": "almost as effective in suppressing Ca^2+ waves"}, {"measurement": "y-intercept for Ca transient (normalized Ca release vs amount of Venus construct in each fiber)", "setting": "[1]", "value": 3.7}, {"measurement": "y-intercept for wave frequency (Ca wave frequency vs amount of Venus construct in each fiber)", "setting": "[1]", "value": 0.11}, {"measurement": "Transfected fibers with construct targeted to / concentrated at TJs", "setting": "[5]", "value": "~25", "unit": "%"}]}
{"compound": "V67D: full length dysferlin with pathogenic mutation V67D in C2A [reference compound]", "values": [{"measurement": "Ca2+ signaling activity (restoring/protecting amplitude of the Ca2+ transient after OSI)", "setting": "[1]", "value": "inactivated full length dysferlin"}]}
{"compound": "2 C2-PKCα domains with a single DYSF-C2A domain: construct that contains 2 C2-PKCα domains with a single DYSF-C2A domain; SEQ ID NO: 13", "values": [{"measurement": "Transfected fibers with construct targeted to / concentrated at TJs", "setting": "[5]", "value": 75, "unit": "%"}]}
